Laboratory results published in US11547842B2, “Methods for cancer treatment” (The Board of Trustees of the Leland Stanford Junior …, priority 2013, dated 2023).
Where two headings read alike, the source gives them in different places.

How the values were obtained:
mycosis fungoides [1] = assay: Therapy history of patient 3 before SD-101 (clinical response, tolerability)
mycosis fungoides [2] = conditions: human, in vivo

Row | Compound | reason the therapy was stopped (toxicity) (mycosis fungoides [1]) | response to therapy (mycosis fungoides [1]; Zolinza with 12 Gy TSEBT, Targretin 300 mg daily, SGN-35 clinical trial) | reason the therapy was stopped (toxicity) (mycosis fungoides [2])
1 | C=C(c1ccc(C(=O)O)cc1)c1cc2c(cc1C)C(C)(C)CCC2(C)C [Targretin] | hypertriglyceridemia | partial response in the skin | –
2 | SGN-35: agent of the SGN-35 clinical trial in which patient 3 participated | – | – | too much toxicity
